In paper PMC9243654 (Frontiers in Nutrition, 2022):
Like-named read-outs stand apart in the source and are kept apart here.

Assays:
[1] = ref PubChem database, cited from earlier work
[2] = in vitro; conditions: for PAMPA-BBB log Pe (cm s−1): pH 7.4
Procedure: The PAMPA-BBB assay was conducted according to the methodology followed by Di et al., with some modifications as described below ([15]). First, the BBB solution was prepared by dissolving 8 mg of PBL and 4 mg of cholesterol in 600 μl of n-dodecane. The initial donor solution was prepared by mixing 1 ml of extract (10 mg ml^−1 in EtOH) with 1 ml of buffer (PBS, pH = 7.4, 10 mM). The filter membrane of the donor plate was carefully coated with 5 μl of BBB solution. The acceptor plate was filled with 350 μl of buffer, and the donor plate was carefully assembled over the acceptor plate like a “sandwich.” Finally, the donor plate was filled with 350 μl of donor solution, covered, and incubated for 4 h at 37°C in the dark. After incubation time, 300 μl of the solution was taken from both plates, transferred to separate vials, and dried in the SpeedVac system at 40°C and 13 mbar pressure. Dried acceptor and donor solution were dissolved in 50 μl of pure EtOH before subjecting to UHPLC-Q-TOF-MS analysis. Permeability across in vitro BBB of the bioactive compound was measured according to Equation (1) ([25]), with some modifications in concentration rates.
(1) Pe=-ln[1-CA(t)/Ce]/A^*(1/VD+1/VA)^*t
Cequilibrium was calculated according to the following equation ([2]):
(2) Cequilibrium=[CD(t)*VD+CA(t)*VA]/(VD+VA)

[3] = compounds identified in LPLE extract
[4] = PAMPA, pH 7.4, PAMPA-BBB log Pe (cm s−1)
[5] = PAMPA, pH 7.4, PAMPA-BBB log Pe, compound within LPLE (Nothofagus pumilio, lenga PLE extract), N.D = not detected in acceptor
[6] = compounds of RSFE extract, octanol-water partition coefficient
[7] = compound within LPLE (Nothofagus pumilio, lenga PLE extract), classes based on Könczöl et al.
[8] = compound within LPLE (Nothofagus pumilio, lenga PLE extract), N.D = not detected in acceptor

O=C(O)c1ccc(O)c(O)c1 [Protocatechuic acid]
Log P [1, 3]: 1.1
Log P ([1]; compounds of ASFE extract): 1.1
Log P ([1]; compounds of KD extract): 1.1
Cross BBB potential ([2]; PAMPA): +++
PAMPA-BBB log Pe (cm s−1) ([2]; PAMPA, 4 h): −3.92 cm s−1
Papp at 4 h [2, 4]: 148 ×10⁻⁶ cm/s
Papp at 4 h ([2]; PAMPA, pH 7.4, PAMPA-BBB log Pe (cm s−1), compound within KD extract, 4 h, 37°C, PBS pH 7.4): 105 ×10⁻⁶ cm/s
Papp at 4 h [2, 5]: 138 ×10⁻⁶ cm/s

CC(=O)OC(C)(C)[C@@H]1CC[C@@]2(C)CO[C@]3(C)C=CO[C@]23C1 [Phytuberin]
Log P ([1]; compounds of T33 extract): 2.3
Cross BBB potential ([2]; PAMPA): ++
PAMPA-BBB log Pe (cm s−1) ([2]; PAMPA, 4 h): −4.51 cm s−1

COc1cc2oc(-c3ccc(O)cc3)cc(=O)c2c(O)c1OC [Crisimaritin]
Log P [1, 6]: 2.0
Cross BBB potential ([2]; PAMPA): +++
PAMPA-BBB log Pe (cm s−1) ([2]; PAMPA, 4 h): −4.36 cm s−1

O=C(O)c1cc(O)c(O)c(Oc2c(O)c(=O)c3oc(O)c4cc(O)c(=O)c5oc(O)c2c3c45)c1 [Sanguisorbic acid dilactone]
Log P [1, 3]: −0.4
Log P ([1]; compounds of ASFE extract): −0.4
Cross BBB potential [2, 7]: -

COc1cc(/C=C/C(=O)O)cc(OC)c1O [Sinapic acid]
Log P [1, 3]: 1.5
Log P ([1]; compounds of ASFE extract): 1.5
Log P ([1]; compounds of KD extract): 1.5
Log P ([1]; compounds of T33 extract): 1.5
Cross BBB potential ([2]; compound within ASFE extract): -
Cross BBB potential ([2]; compound within KD extract): -
Cross BBB potential ([2]; compound within T33 extract): -

COc1cc(/C=C/C(=O)OC(C(=O)O)C(O)C(=O)O)ccc1O (stereo not shown) [Fertaric acid]
Log P [1, 3]: 0.4
Log P ([1]; compounds of ASFE extract): 0.4
Cross BBB potential ([2]; compound within ASFE extract): -
Cross BBB potential [2, 7]: -

O=c1c(O[C@@H]2O[C@H](CO)[C@@H](O)[C@H](O)[C@H]2O)c(-c2ccc(O)cc2)oc2cc(O)cc(O)c12 [Kaempferol 3-O-β-D-glucoside]
Log P ([1]; compounds of KD extract): 2.37
Cross BBB potential ([2]; compound within KD extract): -

COc1ccc(-c2cc(=O)c3c(O)cc(OC)cc3o2)cc1 [4-Methoxytectochrysin]
Log P [1, 6]: 3.3
Cross BBB potential ([2]; PAMPA): +++
PAMPA-BBB log Pe (cm s−1) ([2]; PAMPA, 4 h): −4.22 cm s−1

O=Cc1ccc(O)c(O)c1 [Protocatechuic aldehyde]
Log P [1, 3]: 1.1
Log P ([1]; compounds of ASFE extract): 1.1
PAMPA-BBB log Pe (cm s−1) ([2]; PAMPA): −5.75 cm s−1
PAMPA-BBB log Pe [2, 8]: −5.13 cm s−1

COc1ccc([C@@H]2CC(=O)c3c(O)cc(O)cc3O2)cc1O [Hesperetin]
Log P [1, 3]: 2.4
Papp at 4 h ([2]; PAMPA, pH 7.4, PAMPA-BBB log Pe): 5.01 ×10⁻⁶ cm/s

CCC(O)C1CC(C)C2(CC(=O)C3(C)C4=C(CCC32C)C2(C)CCC(=O)C(C)(CO)C2CC4)O1 [Triterpene*, (23S,24S)-17,23-Epoxy-24,29-dihydroxy-27-norlanost-8-ene-3,15-dione]
Log P [1, 3]: 3.6
Log P ([1]; compounds of ASFE extract): 3.6
Cross BBB potential ([2]; PAMPA): ++
PAMPA-BBB log Pe (cm s−1) ([2]; PAMPA, 4 h): −4.97 cm s−1
PAMPA-BBB log Pe [2, 8]: −5.05 cm s−1

O=c1c(-c2ccc(O)cc2)coc2c([C@@H]3O[C@H](CO)[C@@H](O)[C@H](O)[C@H]3O)c(O)c([C@@H]3O[C@H](CO)[C@@H](O)[C@H](O)[C@H]3O)c(O)c12 [Paniculatin]
Log P ([1]; compounds of KD extract): −2.3
Cross BBB potential ([2]; compound within KD extract): -

COc1cc(/C=C/C=O)cc(OC)c1O [Sinapaldehyde]
Log P [1, 3]: 1.4
Log P ([1]; compounds of ASFE extract): 1.4
Cross BBB potential ([2]; compound within ASFE extract): -

Oc1cccc(O)c1O [Pyrogallol]
Log P [1, 3]: 0.5
Cross BBB potential ([2]; PAMPA): -

C[C@]12CC[C@H]3[C@@H](CC[C@]4(O)C[C@@H](O)C[C@@H](O)[C@]34C=O)[C@@]1(O)CC[C@@H]2c1ccc(=O)oc1 [Bersaldegenin]
Log P ([1]; compounds of KD extract): 0.2
Cross BBB potential ([2]; compound within KD extract): -

COc1cc(/C=C/C=O)ccc1O [Coniferaldehyde]
Log P [1, 3]: 1.5
Log P ([1]; compounds of ASFE extract): 1.5
PAMPA-BBB log Pe (cm s−1) ([2]; PAMPA): −4.24 cm s−1
PAMPA-BBB log Pe [2, 8]: −4.65 cm s−1

Oc1ccc(/C=C/c2cc(O)cc(O)c2)cc1 [Trans-resveratrol]
Log P [1, 3]: 2.5
Log P ([1]; compounds of ASFE extract): 2.5
Cross BBB potential ([2]; PAMPA): -

O=C(O[C@@H]1Cc2c(O)cc(O)cc2O[C@@H]1c1ccc(O)c(O)c1)c1cc(O)c(O)c(O)c1 [(-)-Epicatechin gallate]
Log P [1, 3]: 1.5
Log P ([1]; compounds of ASFE extract): 1.5
Cross BBB potential ([2]; compound within ASFE extract): -
Cross BBB potential [2, 7]: -

CC(C)c1cc2c(cc1O)C1(C)CCC(=O)C(C)(C)C1CC2 (stereo not shown) [Hinokione]
Log P [1, 6]: 4.9
Cross BBB potential ([2]; compound within RSFE extract): -

C[C@H]1O[C@H](O[C@H]2CC[C@]3(C=O)[C@H]4CC[C@]5(C)[C@@H](c6ccc(=O)oc6)CC[C@]5(O)[C@@H]4CC[C@]3(O)C2)[C@H](O)[C@@H](O)[C@@H]1O [Kalanchoside A]
Log P ([1]; compounds of KD extract): −0.1
Cross BBB potential ([2]; compound within KD extract): -

O=C1c2c(O)cc(O)cc2O[C@H](c2ccc(O)cc2)[C@H]1O [Aromadendrin]
Log P [1, 3]: 1.8
Log P ([1]; compounds of ASFE extract): 1.8
Cross BBB potential ([2]; compound within ASFE extract): -
Cross BBB potential [2, 7]: -

CC(=O)O[C@H]1C[C@@H](O)[C@]2(C=O)[C@H]3CC[C@]4(C)[C@@H](c5ccc(=O)oc5)CC[C@]4(O)[C@@H]3CC[C@]2(O)C1 [Bersaldegenin-3-acetate]
Log P ([1]; compounds of KD extract): 1.3
Cross BBB potential ([2]; compound within KD extract): -

CC(C)c1cc2c(c(O)c1O)C(=O)C1CCCC(C)(C)C1CC2 (stereo not shown) [Rosmaridiphenol]
Log P [1, 6]: 5.9
Cross BBB potential ([2]; PAMPA): +
PAMPA-BBB log Pe (cm s−1) ([2]; PAMPA, 4 h): −5.55 cm s−1

COc1cc(C=O)cc(OC)c1O [Syringaldehyde]
Log P [1, 3]: 0.1
Log P ([1]; compounds of T33 extract): 1.1
Papp [2, 5]: 13.5 ×10⁻⁶ cm/s

O=C(/C=C/c1ccc(O)c(O)c1)c1ccc(O)cc1O [Butein]
Log P [1, 3]: 2.8
Log P ([1]; compounds of ASFE extract): 2.8
Papp at 4 h ([2]; PAMPA, pH 7.4, PAMPA-BBB log Pe (cm s−1), compound within ASFE extract, 4 h, 37°C, PBS pH 7.4): 2.19 ×10⁻⁶ cm/s
Papp at 4 h [2, 5]: 16.6 ×10⁻⁶ cm/s
Cross BBB potential ([2]; compound within ASFE extract): + (log Pe > −6.5)
Cross BBB potential [2, 7]: ++ (log Pe > −5.5)

O.Oc1cc(O)c2c(c1)O[C@H](c1ccc(O)c(O)c1)[C@@H](O)C2 [Catechin]
Log P [1, 3]: 0.4
Log P ([1]; compounds of ASFE extract): 0.4
Cross BBB potential ([2]; PAMPA): -

CC(C)C1=Cc2ccc3c(c2C(=O)C1=O)CCCC3(C)C [Rosmariquinone]
Log P [1, 6]: 4.9
Cross BBB potential ([2]; PAMPA): ++
PAMPA-BBB log Pe (cm s−1) ([2]; PAMPA, 4 h): −5.00 cm s−1

Kalandaigremoside F
Log P ([1]; compounds of KD extract): 7.2
Cross BBB potential ([2]; compound within KD extract): -

O=c1ccc2cc(O[C@@H]3O[C@H](CO)[C@@H](O)[C@H](O)[C@H]3O)c(O)cc2o1 [Esculin]
Log P [1, 6]: −0.6
Cross BBB potential ([2]; PAMPA): +++ (key: -: not detected in acceptor; +: log Pe > −6.5; ++: log Pe > −5.5; +++: log Pe > −4.5)
Papp [2, 4]: 50.1 ×10⁻⁶ cm/s
